# What was measured:
# [1] = test system: Z-138 cells; assay: Z-138 Proliferation Assay (Cell Titer Glo, 5 days); format: cell-based; conditions: Homo sapiens, 120 h
# Source text: Z-138 Proliferation Assay
# Z-138 suspension cells were purchased from ATCC (American Type Culture Collection, Manassas, Va.). RPMI/Glutamax medium, penicillin-streptomycin, heat inactivated fetal bovine serum were purchased from Life Technologies, Grand Island, N.Y., USA. V-bottom polypropylene 384-well plates were purchased from Greiner Bio-One, Monroe, N.C., USA. Cell culture 384-well white opaque plates were purchased from Perkin Elmer, Waltham, Mass., USA. Cell-Titer Glo® was purchased from Promega Corporation, Madison, Wis., USA. SpectraMax M5 plate reader was purchased from Molecular Devices LLC, Sunnyvale, Calif., USA.
# Z-138 suspension cells were maintained in growth medium (RPMI 1640 supplemented with 10% v/v heat inactivated fetal bovine serum and cultured at 37° C. under 5% CO2. Under assay conditions, cells were incubated in assay medium (RPMI 1640 supplemented with 10% v/v heat inactivated fetal bovine serum and 100 units/mL penicillin-streptomycin) at 37° C. under 5% CO2.
# For the assessment of the effect of compounds on the proliferation of the Z-138 cell line, exponentially growing cells were plated in 384-well white opaque plates at a density of 10,000 cells/ml in a final volume of 50 μl of assay medium. A compound source plate was prepared by performing triplicate nine-point 3-fold serial dilutions in DMSO, beginning at 10 mM (final top concentration of compound in the assay was 20 μM and the DMSO was 0.2%). A 100 nL aliquot from the compound stock plate was added to its respective well in the cell plate. […] After addition of compounds, assay plates were incubated for 5 days at 37° C., 5% CO2, relative humidity >90%.
# Cell viability was measured by quantitation of ATP present in the cell cultures, adding 35 μl of Cell Titer Glo® reagent to the cell plates. Luminescence was read in the SpectraMax M5 microplate reader. The concentration of compound inhibiting cell viability by 50% was determined using a 4-parametric fit of the normalized dose response curves.
# [2] = test system: symmetric di-methyl arginine in Z-138 cells; assay: Z-138 Methylation Assay (In Cell Western for symmetric di-methyl arginine and DNA content); format: cell-based; conditions: Homo sapiens, read-out: ICW EC50
# Source text: Z-138 suspension cells were purchased from ATCC (American Type Culture Collection, Manassas, Va.). RPMI/Glutamax medium, penicillin-streptomycin, heat inactivated fetal bovine serum, and D-PBS were purchased from Life Technologies, Grand Island, N.Y., USA. Odyssey blocking buffer, 800CW goat anti-rabbit IgG (H+L) antibody, and Licor Odyssey infrared scanner were purchased from Licor Biosciences, Lincoln, Nebr., USA. Symmetric di-methyl arginine antibody was purchased from EMD Millipore, Billerica, Mass., USA. 16% Paraformaldehyde was purchased from Electron Microscopy Sciences, Hatfield, Pa., USA.
# Z-138 suspension cells were maintained in growth medium (RPMI 1640 supplemented with 10% v/v heat inactivated fetal bovine serum and 100 units/mL penicillin-streptomycin) and cultured at 37° C. under 5% CO2.
# Cell Treatment, in Cell Western (ICW) for Detection of Symmetric Di-Methyl Arginine and DNA Content.
# Z-138 cells were seeded in assay medium at a concentration of 50,000 cells per mL to a 384-well cell culture plate with 50 μL per well. Compound (100 nL) from 384 well source plates was added directly to 384 well cell plate. Plates were incubated at 37° C., 5% CO2 for 96 hours. After four days of incubation, 40 μL of cells from incubated plates were added to poly-D-lysine coated 384 well culture plates (BD Biosciences 356697). Plates were incubated at room temperature for 30 minutes then incubated at 37° C., 5% CO2 for 5 hours. After the incubation, 40 μL per well of 8% paraformaldehyde in PBS (16% paraformaldahyde was diluted to 8% in PBS) was added to each plate and incubated for 30 minutes. Plates were transferred to a Biotek 405 plate washer and washed 5 times with 100 μL per well of wash buffer (1×PBS with 0.1% Triton X-100 (v/v)). Next 30 μL per well of Odyssey blocking buffer were added to each plate and incubated 1 hour at room temperature. Blocking buffer was removed and 20 μL per well of primary antibody was added (symmetric di-methyl arginine diluted 1:100 in Odyssey buffer with 0.1% Tween 20 (v/v)) and plates were incubated overnight (16 hours) at 4° C. Plates were washed 5 times with 100 μL per well of wash buffer. Next 20 μL per well of secondary antibody was added (1:200 800CW goat anti-rabbit IgG (H+L) antibody, 1:1000 DRAQ5 (Biostatus limited) in Odyssey buffer with 0.1% Tween 20 (v/v)) and incubated for 1 hour at room temperature. The plates were washed 5 times with 100 μL per well wash buffer then 1 time with 100 μL per well of water. Plates were allowed to dry at room temperature then imaged on the Licor Odyssey machine which measures integrated intensity at 700 nm and 800 nm wavelengths. Both 700 and 800 channels were scanned.
# First, the ratio for each well was determined by:
# Each plate included fourteen control wells of DMSO only treatment (minimum inhibition) as well as fourteen control wells for maximum inhibition treated with 3 μM of a reference compound (Background wells). The average of the ratio values for each control type was calculated and used to determine the percent inhibition for each test well in the plate. Reference compound was serially diluted three-fold in DMSO for a total of nine test concentrations, beginning at 3 μM. Percent inhibition was determined and IC50 curves were generated using triplicate wells per concentration of compound.
# [3] = biological target: T1, PRMT5/MEP50 (Homo sapiens, UniProt O14744); assay: PRMT5 Biochemical Assay (PRMT5/MEP50 enzyme assay on histone H4 peptide substrate, 3H-SAM Flashplate); conditions: PRMT5 biochemical assay; read-out: Biochemical IC50
# T1 construct: Flag-PRMT5; made in house; host or cells: Spodoptera frugiperda (SF9), baculovirus
# How it was run: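 Sf9-expressed Flag-PRMT5/6His-MEP50 preincubated with compound 30 min at 25 °C, then methylation of biotinylated H4 1-15 peptide started with ³H-SAM in 20 mM Bicine pH 7.6, 1 mM TCEP, 0.005% BSG, 0.002% Tween20.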
# T1 sequence (O14744 with tags, fused parts or gaps): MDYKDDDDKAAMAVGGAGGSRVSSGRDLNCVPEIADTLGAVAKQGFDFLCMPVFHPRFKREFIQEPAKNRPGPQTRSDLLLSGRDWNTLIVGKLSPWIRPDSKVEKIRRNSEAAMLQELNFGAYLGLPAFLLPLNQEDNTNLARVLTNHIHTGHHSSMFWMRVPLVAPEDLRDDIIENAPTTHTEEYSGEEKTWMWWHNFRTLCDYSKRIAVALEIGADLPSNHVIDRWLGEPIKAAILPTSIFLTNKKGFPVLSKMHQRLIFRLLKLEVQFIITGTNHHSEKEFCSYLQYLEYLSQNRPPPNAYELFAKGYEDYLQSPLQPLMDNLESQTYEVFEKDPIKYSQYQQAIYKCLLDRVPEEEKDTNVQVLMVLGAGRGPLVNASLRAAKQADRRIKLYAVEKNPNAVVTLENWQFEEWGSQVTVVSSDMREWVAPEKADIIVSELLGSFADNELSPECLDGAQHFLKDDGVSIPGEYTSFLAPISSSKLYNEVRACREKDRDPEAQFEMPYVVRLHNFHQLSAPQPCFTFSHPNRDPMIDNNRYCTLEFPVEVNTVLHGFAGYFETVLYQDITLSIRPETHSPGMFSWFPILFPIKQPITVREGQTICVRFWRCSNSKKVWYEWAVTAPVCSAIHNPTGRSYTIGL
# T1 sequence (Q9BQA1 with tags, fused parts or gaps partner limits assumed): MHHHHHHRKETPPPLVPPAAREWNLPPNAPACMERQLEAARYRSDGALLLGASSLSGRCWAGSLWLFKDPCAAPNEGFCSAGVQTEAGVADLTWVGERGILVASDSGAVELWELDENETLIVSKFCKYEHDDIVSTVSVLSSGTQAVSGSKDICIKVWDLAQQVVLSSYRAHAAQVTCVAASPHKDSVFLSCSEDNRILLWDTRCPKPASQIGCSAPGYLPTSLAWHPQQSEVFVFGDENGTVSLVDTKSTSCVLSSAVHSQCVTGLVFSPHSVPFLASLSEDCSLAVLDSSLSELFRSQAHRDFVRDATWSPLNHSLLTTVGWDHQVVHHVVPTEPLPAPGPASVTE
EC50 [2],IC50 [3],SMILES,EC50 [1]
–,101 to 1000 nM,CCOc1c(C)cc(S(=O)(=O)NCC2CCN(Cc3cccc4c3OCO4)CC2)cc1C [Compound 5-3],> 20000 nM
–,101 to 1000 nM,CCOc1c(C)cc(S(=O)(=O)NCC2CCN(Cc3ccc4ncccc4c3)CC2)cc1C [Compound 6-3],> 20000 nM
1000 to 10000 nM,101 to 1000 nM,CN(C)c1cccc2c(S(=O)(=O)NC3CC(=O)N(c4cccc(F)c4)C3)cccc12 (stereo not shown) [Compound 6-4],–
–,101 to 1000 nM,CCOc1c(C)cc(S(=O)(=O)NCC2CCN(Cc3ccccc3-c3ccccc3)CC2)cc1C [Compound 7-3],> 20000 nM
–,101 to 1000 nM,O=S(=O)(NCC1CCN(Cc2ccco2)CC1)c1ccc(Oc2ccccc2)cc1 [Compound 8-3],> 20000 nM
–,< 100 nM,CCOc1c(C)cc(S(=O)(=O)NCC2CCN(Cc3c(SC(C)C)nc4sccn34)CC2)cc1C [Compound 9-3],> 20000 nM
–,101 to 1000 nM,CCOc1c(C)cc(S(=O)(=O)NCC2CCN(Cc3ccc4ccccc4c3)CC2)cc1C [Compound 10-3],> 20000 nM
–,101 to 1000 nM,CCOc1c(C)cc(S(=O)(=O)NCC2CCN(Cc3c(-c4ccccc4)[nH]c4ccccc34)CC2)cc1C [Compound 11-3],> 20000 nM
10000 to 50000 nM,101 to 1000 nM,"O=S(=O)(NCC1CCN(Cc2ccco2)CC1)c1cccc2c(Cl)cccc12 [Compound 12-3, 5-chloro-N-((1-(furan-2-ylmethyl)piperidin-4-yl)methyl)naphthalene-1-sulfonamide]",–
–,101 to 1000 nM,CN(C)c1cccc2c(S(=O)(=O)NC3CCN(Cc4ccco4)CC3)cccc12 [Compound 13-3],> 20000 nM

# More lines, now with the values behind:
SMILES,EC50 [2],IC50 [3],EC50 [1]
O=C(NCC(O)CN1CCc2ccccc2C1)c1ccc(OC2CCOC2)cc1 (stereo not shown) [1-10],< 100 nM,< 100 nM,1000 to 10000 nM
CN1CCC(NC2=NN(C)CC(C(=O)NC[C@H](O)CN3CCc4ccccc4C3)C2)C1 (stereo partly shown) [1-12],101 to 1000 nM,< 100 nM,> 5000 nM
CN(C)c1cccc2c(S(=O)(=O)NC3CC(=O)N(c4ccccc4)C3)cccc12 (stereo not shown) [Compound 1-4],101 to 1000 nM,101 to 1000 nM,1000 to 10000 nM
CN(C)c1cccc2c(S(=O)(=O)NC3CCN(Cc4ccccc4)C3)cccc12 (stereo not shown) [Compound 1-5],1000 to 10000 nM,101 to 1000 nM,> 20000 nM
O=C(CC1NC(N2CCN(c3ccccc3)CC2)=NC1=O)Nc1ccc(Cl)cc1 (stereo not shown) [Compound 1-6],101 to 1000 nM,101 to 1000 nM,> 20000 nM
"CC(=O)N1CCC(Nc2cc(C(=O)NC[C@H](O)CNCc3ccccc3)ccn2)CC1 [Compound 1-8, (R)-2-((1-acetylpiperidin-4-yl)amino)-N-(3-(benzylamino)-2-hydroxypropyl)isonicotinamide]",–,101 to 1000 nM,> 5000 nM
OC(COc1cccc(-c2ccc3ncsc3c2)c1)CN1CCc2ccccc2C1 (stereo not shown) [Compound 1-9],1000 to 10000 nM,101 to 1000 nM,10000 to 50000 nM
O=C(NC[C@H](O)CN1Cc2ccccc2C1)c1ccnc(NC2CCNC2)c1 (stereo partly shown) [Compound 1-11],–,101 to 1000 nM,> 20000 nM
Cc1cccc(Cn2ccnc2CN)c1 [Compound 1-13],> 1000 nM,1000 to 10000 nM,> 5000 nM
Cc1ccc(C(=O)CC2NC(N3CCN(c4ccccc4)CC3)=NC2=O)cc1 (stereo not shown) [Compound 1-14],1000 to 10000 nM,101 to 1000 nM,> 20000 nM
O=C1CC(NS(=O)(=O)c2cccc3ccccc23)CN1c1ccccc1 (stereo not shown) [Compound 2-4],101 to 1000 nM,101 to 1000 nM,10000 to 50000 nM
"CN(C)c1cccc2c(S(=O)(=O)N[C@H]3CCN(Cc4ccccc4)C3)cccc12 [Compound 2-5, (S)—N-(1-benzylpyrrolidin-3-yl)-5-(dimethylamino)naphthalene-1-sulfonamide]",101 to 1000 nM,< 100 nM,> 20000 nM
"CN(C)c1cccc2c(S(=O)(=O)NCCC(N)Cc3ccccc3)cccc12 (stereo not shown) [Compound 2-7, N-(3-amino-4-phenylbutyl)-5-(dimethylamino)naphthalene-1-sulfonamide]",101 to 1000 nM,< 100 nM,1000 to 10000 nM
CC1CC(Nc2cccc(C(=O)NC[C@H](O)CN3CCc4ccccc4C3)c2)CC(C)O1 (stereo partly shown) [Compound 2-9],< 100 nM,< 100 nM,101 to 1000 nM
CS(=O)(=O)N1CCC(Nc2cncc(C(=O)NC[C@H](O)CN3Cc4ccccc4C3)c2)CC1 [Compound 2-11],101 to 1000 nM,< 100 nM,10000 to 50000 nM
NCc1nccn1Cc1cccc(Cl)c1 [Compound 2-13],> 1000 nM,1000 to 10000 nM,> 5000 nM
CN(C)c1cccc2c(S(=O)(=O)NCC3CCN(Cc4ccco4)CC3)cccc12 [Compound 3-3],1000 to 10000 nM,101 to 1000 nM,10000 to 50000 nM
"CN(C)c1cccc2c(S(=O)(=O)N[C@H]3CC(=O)N(c4ccccc4)C3)cccc12 [Compound 3-4, (S)-5-(dimethylamino)-N-(5-oxo-1-phenylpyrrolidin-3-yl)naphthalene-1-sulfonamide]",< 100 nM,< 100 nM,1000 to 10000 nM
"CN(C)c1cccc2c(S(=O)(=O)NC3CN(Cc4ccccc4)C3)cccc12 [Compound 3-5, N-(1-benzylazetidin-3-yl)-5-(dimethylamino)naphthalene-1-sulfonamide]",101 to 1000 nM,< 100 nM,10000 to 50000 nM
CN(C)c1cccc2c(S(=O)(=O)NCCC(N)c3ccccc3)cccc12 (stereo not shown) [Compound 3-7],101 to 1000 nM,< 100 nM,10000 to 50000 nM
O=C(NC[C@H](O)CN1CCc2ccccc2C1)c1cc(NC2CCN(CC(F)(F)F)CC2)ncn1 [Compound 3-9],< 100 nM,< 100 nM,101 to 1000 nM
O=C(NC[C@H](O)CN1Cc2ccccc2C1)c1cc(NC2COC2)ncn1 [Compound 3-11],101 to 1000 nM,101 to 1000 nM,10000 to 50000 nM
Cc1cn(Cc2ccccc2)c(CN)n1 [Compound 3-13],> 1000 nM,101 to 1000 nM,> 5000 nM
CCOc1c(C)cc(S(=O)(=O)NCC2CCN(Cc3ccccc3Br)CC2)cc1C [Compound 4-3],–,101 to 1000 nM,> 20000 nM
CN(C)c1cccc2c(S(=O)(=O)NC[C@H](N)Cc3ccccc3)cccc12 [Compound 4-7],101 to 1000 nM,101 to 1000 nM,–

# — patent US20170198006A1, “PRMT5 INHIBITORS AND USES THEREOF” (Epizyme, Inc., priority 2014, published 2017)
